# Data as given in ChEMBL document CHEMBL1275557, “First countrywide survey of acquired metallo-beta-lactamases in gram-negative pathogens in Italy” (2008).
# Experiments:
# Type in all cases: functional
# [1] = test system: Pseudomonas aeruginosa; assay: Antibacterial activity against IMP-13 producing Pseudomonas aeruginosa clone C2 isolate NA-14X-10 by Etest method
# [2] = test system: Pseudomonas aeruginosa; assay: Antibacterial activity against metallo-beta-lactamase positive Pseudomonas aeruginosa assessed as percent susceptible isolates by Etest method
# [3] = test system: Pseudomonas aeruginosa; assay: Antibacterial activity against IMP-13 producing Pseudomonas aeruginosa clone C3 isolate PG-12X-03 by Etest method
# [4] = test system: Pseudomonas aeruginosa; assay: Antibacterial activity against VIM-2 producing Pseudomonas aeruginosa clone B3 isolate PV-05X-07 by Etest method
# [5] = test system: Pseudomonas aeruginosa; assay: Antibacterial activity against VIM-1 producing Pseudomonas aeruginosa clone A2 isolate NA-14X-26 by Etest method
# [6] = test system: Pseudomonas aeruginosa; assay: Antibacterial activity against VIM-1 producing Pseudomonas aeruginosa clone E isolate VA-06X-29 by Etest method
# [7] = test system: Pseudomonas aeruginosa; assay: Antibacterial activity against VIM-1 producing Pseudomonas aeruginosa clone D1 isolate VA-06X-63 by Etest method
# [8] = test system: Pseudomonas aeruginosa; assay: Antibacterial activity against VIM-1 producing Pseudomonas aeruginosa clone D isolate VA-06X-69 by Etest method
# [9] = test system: Pseudomonas putida; assay: Antibacterial activity against VIM-1 producing Pseudomonas putida isolate RM-11X-11 by Etest method
# [10] = test system: Pseudomonas aeruginosa; assay: Antibacterial activity against VIM-1 producing Pseudomonas aeruginosa clone G isolate NA-14X-13 by Etest method
# [11] = test system: Pseudomonas aeruginosa; assay: Antibacterial activity against VIM-2 producing Pseudomonas aeruginosa clone B2 isolate VA-06X-28 by Etest method
# [12] = test system: Pseudomonas aeruginosa; assay: Antibacterial activity against VIM-1 producing Pseudomonas aeruginosa clone A2 isolate NA-14X-32 by Etest method
# [13] = test system: Pseudomonas aeruginosa; assay: Antibacterial activity against VIM-2 producing Pseudomonas aeruginosa clone B3 isolate CR-04X-14 by Etest method
# [14] = test system: Pseudomonas aeruginosa; assay: Antibacterial activity against IMP-13 producing Pseudomonas aeruginosa clone C2 isolate NA-14X-12 by Etest method
# [15] = test system: Pseudomonas aeruginosa; assay: Antibacterial activity against VIM-1 producing Pseudomonas aeruginosa clone D2 isolate VA-06X-17 by Etest method
# [16] = test system: Pseudomonas aeruginosa; assay: Antibacterial activity against VIM-1 producing Pseudomonas aeruginosa clone F isolate RM-11X-09 by Etest method
# [17] = test system: Pseudomonas aeruginosa; assay: Antibacterial activity against VIM-2 producing Pseudomonas aeruginosa clone B3 isolate PV-05X-02 by Etest method
# [18] = test system: Pseudomonas aeruginosa; assay: Antibacterial activity against VIM-2 producing Pseudomonas aeruginosa clone B1 isolate SS-09X-45 by Etest method
# [19] = test system: Pseudomonas aeruginosa; assay: Antibacterial activity against VIM-1 producing Pseudomonas aeruginosa clone D4 isolate VA-06X-47 by Etest method
# [20] = test system: Pseudomonas aeruginosa; assay: Antibacterial activity against IMP-13 producing Pseudomonas aeruginosa clone C1 isolate AV-13X-28 by Etest method
# [21] = test system: Pseudomonas aeruginosa; assay: Antibacterial activity against VIM-1 producing Pseudomonas aeruginosa clone D3 isolate VA-06X-65 by Etest method
# [22] = test system: Pseudomonas aeruginosa; assay: Antibacterial activity against VIM-1 producing Pseudomonas aeruginosa clone A1 isolate FG-17X-14 by Etest method
# [23] = test system: Pseudomonas aeruginosa; assay: Antibacterial activity against VIM-2 producing Pseudomonas aeruginosa clone B2 isolate VA-06X-38 by Etest method
# [24] = test system: Enterobacter cloacae; assay: Antibacterial activity against VIM-1 producing Enterobacter cloacae isolate TO-16X-51 by Etest method
# [25] = test system: Pseudomonas aeruginosa; assay: Antibacterial activity against VIM-1 producing Pseudomonas aeruginosa clone D2 isolate VA-06X-16 by Etest method
# [26] = test system: Pseudomonas aeruginosa; assay: Antibacterial activity against IMP-13 producing Pseudomonas aeruginosa clone C2 isolate NA-14X-02 by Etest method
# [27] = test system: Pseudomonas aeruginosa; assay: Antibacterial activity against VIM-1 producing Pseudomonas aeruginosa clone A3 isolate FG-17X-08 by Etest method
# [28] = test system: Pseudomonas aeruginosa; assay: Antibacterial activity against VIM-2 producing Pseudomonas aeruginosa clone B2 isolate VA-06X-20 by Etest method
# [29] = test system: Pseudomonas aeruginosa; assay: Antibacterial activity against VIM-1 producing Pseudomonas aeruginosa clone A3 isolate NA-14X-34 by Etest method
# [30] = test system: Pseudomonas aeruginosa; assay: Antibacterial activity against IMP-13 producing Pseudomonas aeruginosa clone C2 isolate NA-14X-11 by Etest method
# [31] = test system: Pseudomonas aeruginosa; assay: Antibacterial activity against VIM-1 producing Pseudomonas aeruginosa clone A2 isolate NA-14X-21 by Etest method
# [32] = test system: Klebsiella aerogenes; assay: Antibacterial activity against nonreplicate Enterobacter aerogenes clinical isolate by Etest method
# [33] = test system: Enterobacter cloacae; assay: Antibacterial activity against nonreplicate Enterobacter cloacae clinical isolate by Etest method
# [34] = Antibacterial activity against nonreplicate Burkholderia cepacia complex clinical isolate by Etest method
# [35] = test system: Proteus mirabilis; assay: Antibacterial activity against nonreplicate Proteus mirabilis clinical isolate by Etest method
# [36] = test system: Pseudomonas putida; assay: Antibacterial activity against nonreplicate Pseudomonas putida clinical isolate by Etest method
# [37] = test system: Acinetobacter baumannii; assay: Antibacterial activity against nonreplicate Acinetobacter baumannii clinical isolate by Etest method
# [38] = test system: Pseudomonas aeruginosa; assay: Antibacterial activity against nonreplicate Pseudomonas aeruginosa clinical isolate by Etest method
# [39] = test system: Klebsiella pneumoniae; assay: Antibacterial activity against nonreplicate Klebsiella pneumoniae clinical isolate by Etest method
Molecule,MIC [1] [µg/mL],MIC [3] [µg/mL],MIC [4] [µg/mL],MIC [5] [µg/mL],MIC [6] [µg/mL],MIC [7] [µg/mL],MIC [8] [µg/mL],MIC [9] [µg/mL],MIC [10] [µg/mL],MIC [11] [µg/mL],MIC [12] [µg/mL],MIC [13] [µg/mL],MIC [14] [µg/mL],MIC [15] [µg/mL],MIC [16] [µg/mL],MIC [17] [µg/mL],MIC [18] [µg/mL],MIC [19] [µg/mL],MIC [20] [µg/mL],MIC [21] [µg/mL],also measured
NCC[C@H](O)C(=O)N[C@@H]1C[C@H](N)[C@@H](O[C@H]2O[C@H](CN)[C@@H](O)[C@H](O)[C@H]2O)[C@H](O)[C@H]1O[C@H]1O[C@H](CO)[C@@H](O)[C@H](N)[C@H]1O [AMIKACIN],16,> 128,> 128,32,> 128,8,8,1,> 128,> 128,24,> 128,16,8,8,> 128,> 128,8,8,8,Activity [2]: 50%; MIC [22]: 8 µg/mL; MIC [23]: > 128 µg/mL; MIC [24]: 24 µg/mL; MIC [25]: 8 µg/mL; MIC [26]: 16 µg/mL; MIC [27]: 16 µg/mL; MIC [28]: > 128 µg/mL; MIC [29]: 24 µg/mL; MIC [30]: 16 µg/mL; MIC [31]: 24 µg/mL
C[C@H]1[C@H](NC(=O)/C(=N\OC(C)(C)C(=O)O)c2csc(N)n2)C(=O)N1S(=O)(=O)O [AZTREONAM],–,–,–,–,–,–,–,8,–,–,–,–,–,–,–,–,–,–,–,–,Activity [2]: 75%
CC(C)(O/N=C(\C(=O)N[C@@H]1C(=O)N2C(C(=O)[O-])=C(C[n+]3ccccc3)CS[C@H]12)c1csc(N)n1)C(=O)O [CEFTAZIDIME],> 128,> 128,32,> 128,> 128,> 128,> 128,> 128,> 128,64,> 128,64,> 128,> 128,> 128,32,> 128,> 128,> 128,> 128,MIC [22]: > 128 µg/mL; MIC [23]: 48 µg/mL; MIC [24]: > 128 µg/mL; MIC [25]: > 128 µg/mL; MIC [26]: > 128 µg/mL; MIC [27]: > 128 µg/mL; MIC [28]: 64 µg/mL; MIC [29]: > 128 µg/mL; MIC [30]: > 128 µg/mL; MIC [31]: > 128 µg/mL
O=C(O)c1cn(C2CC2)c2cc(N3CCNCC3)c(F)cc2c1=O [CIPROFLOXACIN],–,–,–,–,–,–,–,0.06,–,–,–,–,–,–,–,–,–,–,–,–,–
C[C@@H](O)[C@H]1C(=O)N2C(C(=O)O)=C(SCCNC=N)C[C@H]12 [IMIPENEM ANHYDROUS],> 32,> 32,> 32,> 32,> 32,> 32,> 32,> 32,> 32,> 32,> 32,> 32,> 32,> 32,> 32,> 32,> 32,> 32,> 16,> 32,MIC [32]: 16 µg/mL; MIC [33]: 4 µg/mL; MIC [34]: 8 µg/mL; MIC [35]: 8 µg/mL; MIC [36]: 16 µg/mL; MIC [37]: 4 µg/mL; MIC [22]: > 32 µg/mL; MIC [23]: > 32 µg/mL; MIC [24]: 4 µg/mL; MIC [38]: 8 µg/mL; MIC [25]: > 32 µg/mL; MIC [26]: > 32 µg/mL; MIC [27]: > 32 µg/mL; MIC [39]: 2 µg/mL; MIC [28]: > 32 µg/mL; MIC [29]: > 32 µg/mL; MIC [30]: > 32 µg/mL; MIC [31]: > 32 µg/mL
C[C@H]1COc2c(N3CCN(C)CC3)c(F)cc3c(=O)c(C(=O)O)cn1c23.C[C@H]1COc2c(N3CCN(C)CC3)c(F)cc3c(=O)c(C(=O)O)cn1c23.O [LEVOFLOXACIN],> 32,> 32,> 32,> 32,> 32,> 32,> 32,0.25,> 32,> 32,> 32,> 32,> 32,> 32,> 32,> 32,> 32,> 32,> 32,> 32,MIC [22]: > 32 µg/mL; MIC [23]: > 32 µg/mL; MIC [24]: > 32 µg/mL; MIC [25]: > 32 µg/mL; MIC [26]: > 32 µg/mL; MIC [27]: > 32 µg/mL; MIC [28]: > 32 µg/mL; MIC [29]: > 32 µg/mL; MIC [30]: > 32 µg/mL; MIC [31]: > 32 µg/mL
C[C@@H](O)[C@H]1C(=O)N2C(C(=O)O)=C(S[C@@H]3CN[C@H](C(=O)N(C)C)C3)[C@H](C)[C@H]12 [MEROPENEM],> 32,> 32,8,> 32,> 32,> 32,> 32,> 32,> 32,> 32,> 32,> 32,> 32,> 32,> 32,8,> 32,> 32,8,> 32,MIC [22]: > 32 µg/mL; MIC [23]: > 32 µg/mL; MIC [24]: 2 µg/mL; MIC [25]: > 32 µg/mL; MIC [26]: > 32 µg/mL; MIC [27]: > 32 µg/mL; MIC [28]: > 32 µg/mL; MIC [29]: > 32 µg/mL; MIC [30]: > 32 µg/mL; MIC [31]: > 32 µg/mL
COLISTIN,0.5,0.5,1,2,2,1,1,0.25,2,1,2,2,0.5,1,1,1,2,1,2,0.5,MIC [22]: 1 µg/mL; MIC [23]: 1 µg/mL; MIC [24]: 0.25 µg/mL; MIC [25]: 1 µg/mL; MIC [26]: 0.5 µg/mL; MIC [27]: 0.5 µg/mL; MIC [28]: 1 µg/mL; MIC [29]: 2 µg/mL; MIC [30]: 0.5 µg/mL; MIC [31]: 2 µg/mL
GENTAMICIN,> 128,> 128,8,> 128,> 128,> 128,> 128,4,> 128,8,> 128,8,> 128,> 128,> 128,8,> 128,> 128,> 128,> 128,MIC [22]: > 128 µg/mL; MIC [23]: 8 µg/mL; MIC [24]: 2 µg/mL; MIC [25]: > 128 µg/mL; MIC [26]: > 128 µg/mL; MIC [27]: > 128 µg/mL; MIC [28]: 8 µg/mL; MIC [29]: > 128 µg/mL; MIC [30]: > 128 µg/mL; MIC [31]: > 128 µg/mL
